This is an account of results in US9084779B2, “Conjugates of nitroimidazoles and their use as chemotherapeutic agents” (The Johns Hopkins University, priority 2011, dated 2015).

Data set [1] has as its system subcutaneous LNCaP prostate cancer cell explants. As to the kind of experiment: Immunofluorescence analysis of 2-nitroimidazole induced protein adducts in mouse tumor explants. The conditions noted are these: daily intravenous tail vein injection for three weeks. The format is in vivo, nude mice. How it is done: Immunofluorescence analysis of 2-nitroimidazole induced protein adducts in mouse tumor explants. Nude mice with subcutaneous LNCaP prostate cancer cell explants were administered Hydroxyprobe-1, M3N or M3N-PEG-2NI for three weeks by daily intravenous tail vein injection with an additional injection 3 hours prior to euthanization. Tumors were removed from the euthanized mice by dissection and incubated in 30% sucrose/PBS overnight at 4° C. Excess sucrose was removed and the tissue was incubated in 30% sucrose/PBS:OCT (1:1) for 1 hour at room temperature. Afterward the tissue was frozen in 100% OCT. Frozen sections of […] were prepared and fixed in 4% PFA/PBS for 1 hour at room temperature. The sections were blocked overnight at 4° C. with 5% goat serum/PBS or at room temperature for 1 hour and then incubated with Hydroxyprobe-1 rabbit antiserum (1:200) overnight at 4° C. After three washes with PBS, the secondary antibody, mouse anti rabbit-FITC (1:1000) was added for 1 hour at room temperature. The sections were mounted using Vectashield and fluorescently imaged.

The subject of data set [2] is LNCaP human prostate cancer cells. As to the kind of experiment: Western blot analysis of 2-nitroimidazole induced protein adducts in cell culture. Type of data set: cell-based. The settings on record: 80 μM, 6 hours normoxic then 6 hours hypoxic or normoxic. The method, then:
Western blot analysis of 2-nitroimidazole induced protein adducts in LNCaP cell cultures. Exponentially growing LNCaP human prostate cancer cells were treated with DMSO, 80 μM M3N-PEG-2NI or Hypoxyprobe-1 in standard media for 6 hours under normoxic conditions and then under hypoxic or normoxic conditions for additional 6 hours. Afterward the media was aspirated, the cells washed and ice cold RIPA lysis buffer was added and the cells lysed on ice for 15 minutes. The samples were centrifuged and the lysate collected. Cellular proteins in the extracts were analyzed for the presence of protein adducts using standard western blotting technique. The primary antibody was PAb2627 polyclonal antibody (1:200) directed against Hydroxyprobe-1 protein adducts. The secondary antibody was Anti-Rabbit HRP conjugate (1:2000). Detection was by chemiluminescence
(In western blotting, separated proteins are transferred to a membrane and probed.)

A short description of data set [3]: Determination of water solubility by UV absorbance of a saturated solution. The conditions noted are these: thermodynamic from solid; water, saturated solution, sonicated at 25° C., stirred at room temperature 1.0 h, filtered. Type of data set: physicochemical. How it is done:
The aqueous solubility of all eight compounds was assessed by using a technique involving measurement of their UV absorbance^29.
Determination of Water Solubility of Compounds 7a-d and 10a-d. A saturated solution was prepared by addition of a test compound (7a-d and 10a-d; ca. 1.00 mg) to water (1.00 mL), which was sonicated at 25° C. for 5.0 min and stirring at room temperature for an additional 1.0 h. After filtration with Millipore filters (0.45-μm-pore-size polyvinylidene fluoride), the supernatant was analyzed by UV spectroscopy with concentration determined from absorbance, standardized against calibration data. Standard curves for each compound were obtained by plotting absorbance against concentration. The concentration range of the standard solutions was 1.0-10 μg/mL. For all standards, their curves were linear with γ>0.996.

Data set [4] concerns Hep3B human hepatocellular carcinoma cells. As to the kind of experiment: Hypoxia targeting assay, 5-h exposure then 5 days growth, MTS. The format is cell-based. The settings on record: for IC50: Homo sapiens. How it is done:
Hypoxia targeting assay. Hep3B cells, plated in 96-well plates at a density of 3.0×10^3 cells/well, were incubated overnight and then treated with the test compounds for 5.0 hours at under hypoxic (1% O2) or normoxic (21% O2) conditions. Exposure of cells to hypoxia was carried out in a PROOX C-Chamber with O2 and CO2 levels modulated by a PROOX Model C21 Controller (BioSpherix). At the end of the treatment period, the wells were washed with phosphate buffered saline (PBS) and fresh compound-free media was added. The cells were cultured for an additional 5 days under normoxic conditions and then assayed for cell proliferation using the MTS assay.
Hypoxia targeting. Nitroimidazoles are converted to reactive compounds in hypoxic cells. Therefore it is of importance to compare the antiproliferative activities of the nitroimidazole conjugated compounds against Hep3B cells under normoxic and hypoxic conditions. In these experiments, Hep3B cells in culture were treated with each of the conjugated compounds 7c-d, 10c-d, or the parent compounds 3 or 8 for a 5.0-hour period under normoxic (21% O2) or hypoxic (1.0% O2) conditions. After treatment, the cells were returned to normal conditions and assayed for proliferation after 5 days of additional growth. […] The ratio between the IC50 values for each drug under normoxic versus hypoxic culture conditions was computed and used as a measure of the relative increase in potency.

In brackets after ≈: the same amount, converted by molar mass. Read-outs that look alike come from different tables or passages of the source.

By solubility is commonly meant the concentration that dissolves in the medium under given conditions. High values mean much dissolved substance, low ones little dissolved substance. What is called IC50 is the concentration that inhibits the measured activity by half. As to `COc1ccc(C[C@H](C)[C@H](C)Cc2ccc(OC)c(OCCOCCOCCOCCn3ccnc3[N+](=O)[O-])c2)cc1OC` (racemic) [Compound 7d, (±)-(2R,3S)-4-(3,4-Dimethoxyphenyl)-1-[4-methoxy-3-[12-(2-nitro-1H-imidazol-1-yl)-1,4,7,10-tetraoxadodecanyl]phenyl]-2,3-dimethylbutane], the “Protein adducts in tumor sections by immunofluorescence” value in data set [1] was “Protein-adducts were also found”. Also, in data set [2], the “Protein adducts by western blot (PAb2627 antibody)” value was “showed evidence of protein adducts”. This compound also returned a solubility at 1 h in data set [3] of 13.2 µg/mL (≈ 21.5 µM). Besides, the IC50 in data set [4] (hypoxic (1.0% O2), then 5 days normoxic growth, read-out: IC50 Hypoxic (H)) came to 53.2 ± 8 µM; in data set [4] (normoxic (21% O2), then 5 days growth, read-out: IC50 Normoxic (N)), 60.8 ± 9.4 µM. Also, in data set [4] (normoxic versus hypoxic), the “Ratio IC50 (N)/IC50 (H)” value worked out at 1.14.
